Experimental data as given in patent US20260159546A1, “PHARMACEUTICAL COMPOSITION FOR TREATING SEPSIS INCLUDING DUAL ALARMIN-RECEPTOR-SPECIFIC TARGETING PEPTIDE” (Industry-University Cooperation Foundation Hanyang …, priority 2024, published 2026).
Where two headings read alike, the source gives them in different places. Ends that are not written are not given here.

How the values were obtained:
Format in all cases: cell-based, mouse
BMDMs [1] = test: In vitro cell viability study (Quanti-Max) on BMDMs
Method: Primary bone marrow-derived macrophages (BMDMs) were isolated from female C57BL/6 mice and cultured for five to seven days in a medium supplemented with macrophage-colony stimulating factor (M-CSF) for differentiation. HEK293T cells were acquired from the American Type Culture Collection (ATCC). Both BMDMs and HEK293T cells were cultured in Dulbecco's modified Eagle's medium (DMEM, GenDEPOT Inc., USA) supplemented with 10% fetal bovine serum (FBS), penicillin (100 U/mL), and streptomycin (100 μg/mL).
BMDMs were plated on 96-well plates (SPL Life Science Co. Ltd., Republic of Korea) at a density of 2×10^4 cells/well and incubated in complete DMEM for 18 h. Thereafter, the cells were treated with various concentrations of H-T, H-R, P-T, P-M peptides, control, TMR, or TMR using Abs Lipo. After 48 h of incubation, the medium was replaced with 100 μl of DMEM and the Quanti-Max solution (10% of each media volume). After two hours of incubation at 37° C. and 5% CO2, the absorbance of the plates including the Quanti-Max solution was measured at 450 nm using the MMR SPARK® microplate reader (TECAN Group Ltd., Switzerland).

[2] = test system: LPS-induced cytokine production in BMDMs; test: Cytokine ELISA in supernatant of LPS-treated BMDMs; conditions: LPS 100 ng/mL, 18 h
From the text: FIG. 2. Preparation of TLR4/MD2/RAGE-interacting motifs of HMGB1 or PTX3; • (A and B) Schematic diagram of HMGB1 (A) and PTX3 (B) domains. Glutathione s-transferase (GST)-tagged truncates including the TLR4-, RAGE-, or MD2-binding domains of HMGB1 or PTX3 were constructed. […] HEK293T cells transfected with the GST-tagged constructs in combination with HA-TLR4, Myc-RAGE or His-MD2 were confirmed by GST-pulldown. Western blots of WCLs and eluates after GST-pulldown are shown, using glyceraldehyde 3-phosphate dehydrogenase (GAPDH) as a loading control in WCLs. Based on the pulldown binding results, TLR4-, MD2-, and RAGE-targeted peptides were constructed and prepared as an H-T, H-R, P-T, or P-M peptide (indicated in panels A and B); • (C) BMDMs were incubated with the H-T, H-R, P-T, or P-M peptide at the indicated concentrations for 48 h, and then cell viability was measured by a cell viability assay. […] They were immunoprecipitated with αFlag for two hours, separated by sodium dodecyl sulfate-polyacrylamide gel electrophoresis (SDS-PAGE), and evaluated by immunoblotting; • (E) Competition between rHMGB1 (top) or PTX3 (bottom) and the constructed peptides for their respective receptors. […] TNF-α, IL-6, IL-12p40, and IL-10 levels in the supernatant of the indicated peptide-treated BMDMs, along with LPS (100 ng/mL, 18 h), were determined by ELISA. […]

BMDMs [3] = test: Cytokine ELISA in BMDMs stimulated with recombinant alarmins; conditions: BMDMs treated with recombinant alarmin 2, 5 μg/mL
From the text: FIG. 1. Interaction of extracellular high-mobility group protein B1 (HMGB1) and (pentraxin 3) PTX3 with toll-like receptor 4 (TLR4) or receptor for advanced glycation end products (RAGE) in murine macrophages; • (A and B) Release of HMGB1 (A) or PTX3 (B) from murine macrophages after stimulation with lipopolysaccharide (LPS). LPS-induced HMGB1 (A) or PTX3 (B) release from murine macrophages. Immunoblots (IB) for HMGB1 and PTX3 in the cell lysates in LPS-treated bone marrow-derived macrophages (BMDMs) and the supernatant at indicated time points after LPS (100 ng/ml); • (C and D) Interaction between HMGB1 (C) or PTX3 (D) with receptors thereof. HEK293T cells were transfected with constructs, and cell lysates were immunoprecipitated with a Flag-tag-specific antibody and analyzed by immunoblotting (IB) with the indicated antibodies. […] Immunoprecipitants and whole cel lysates (WCL) were analyzed by immunoblotting with the indicated antibodies; • (E) TNF-α, IL-6, IL-12p40, and IL-10 levels in the supernatant of LPS (100 ng/ml, 18 h) or recombinant alarmins (rHMGB1 or rPTX3, each (2, 5 μg/mL))-treated BMDMs determined by enzyme-linked immunosorbent assay (ELISA). The data shown represents at least three independent experiments (n≥3), and bars denote mean±SEM (****p<0.001), and significance was measured by two-way analysis of variance (ANOVA); […]

[4] = BMDMs, 48 h incubation, various concentrations

AAYRAKGKPD [H-R]
viability of BMDMs (BMDMs [1]; [4]): almost no impact

ALAAVLEELR [P-M]
viability of BMDMs (BMDMs [1]; [4]): almost no impact

FKDPNAPKRP [H-T]
viability of BMDMs (BMDMs [1]): almost no impact

PAEARLTSAL [P-T]
viability of BMDMs (BMDMs [1]; [4]): almost no impact

TMR peptide: fusion peptide of SEQ ID NO: 2 to 5 joined by GG linkers, FKDPNAPKRPGGAAYRAKGKPDGGPAEARLTSALGGALAAVLEELR
production of inflammatory cytokines (TNF-α, IL-6, IL-12p40) [2]: significantly reduced

rPTX3: recombinant alarmin protein pentraxin 3 [reference compound]
levels of TNF-α, IL-6, IL-12p40 and IL-10 (BMDMs [3]): elevated levels

B1: rHMGB1: recombinant alarmin protein high-mobility group protein B1 (protein, UniProt P09429 1-215, looked up)
High mobility group protein B1: MGKGDPKKPRGKMSSYAFFVQTCREEHKKKHPDASVNFSEFSKKCSERWKTMSAKEKGKFEDMAKADKARYEREMKTYIPPKGETKKKFKDPNAPKRPPSAFFLFCSEYRPKIKGEHPGLSIGDVAKKLGEMWNNTAADDKQPYEKKAAKLKEKYEKDIAAYRAKGKPDAAKKGVVKAEKSKKKKEEEEDEEDEEDEEEEEDEEDEDEEEDDDDE
modifications: Flag tag
levels of TNF-α, IL-6, IL-12p40 and IL-10 (BMDMs [3]): elevated levels
